From patent US7220563B2 (priority 2002, dated 2007)

System: recombinant GAO
Type: biochemical

## O=S(=O)([O-])[O-].[Cu+2] [CuSO4, copper sulfate]
  concentration sufficient to activate recombinant GAO: 0.1 mM
  effect on GAO activity: slightly inhibited
  preferred concentration for activating crude enzyme solution: 0.4 mM

## O=C(O)CN(CCN(CC(=O)O)CC(=O)O)CC(=O)O [EDTA]
  effect on activation of the recombinant GAO: did not affect activation

## cobalt
  effect on activation of the recombinant GAO: did not affect activation

## iron
  effect on activation of the recombinant GAO: did not affect activation

## manganese
  effect on activation of the recombinant GAO: did not affect activation

## nickel
  effect on activation of the recombinant GAO: did not affect activation
